Data set [1] concerns Enterococcus faecalis (OG1RF). Put plainly: microbe, parasite or virus in culture. It counts as cell-based.
The subject of data set [2] is hospital-acquired methicillin-resistant S. aureus (HA-MRSA; ATCC 33591). Put plainly: microbe, parasite or virus in culture. It counts as cell-based.
For data set [3], the system named is community-acquired methicillin-resistant S. aureus (CA-MRSA; USA 300-0114). The experiment in a line: microbe, parasite or virus in culture. In kind it is cell-based.
The subject of data set [4] is Escherichia coli (MC4100). The experiment in a line: microbe, parasite or virus in culture. It counts as cell-based.
The test system of data set [5] is Pseudomonas aeruginosa (PAO1). The experiment in a line: microbe, parasite or virus in culture. In kind it is cell-based.
Data set [6] has as its system methicillin-susceptible S. aureus (SH1000). Put plainly: microbe, parasite or virus in culture. It counts as cell-based.

As for `CCCCCCCCCC[P+](CC[P+](CCCCCCCCCC)(c1ccccc1)c1ccccc1)(CC[P+](CCCCCCCCCC)(c1ccccc1)c1ccccc1)CC[P+](CCCCCCCCCC)(c1ccccc1)c1ccccc1` [4P-10,10,10,10, ((decylphosphoniotriyl)tris(ethane-2,1-diyl))tris(decyldiphenylphosphonium)], the “Minimum Inhibitory Concentration E. faecalis” value in data set [1] was 250 µM. In data set [2], the “Minimum Inhibitory Concentration HA-MRSA” value was 32 µM. Also, the “Minimum Inhibitory Concentration CA-MRSA” value in data set [3] worked out at 32 µM. For the same compound, in data set [4], the “Minimum Inhibitory Concentration E. coli” value turned out to be 250 µM. In addition, the “Minimum Inhibitory Concentration Pa” value in data set [5] is more than 250 µM. The “Minimum Inhibitory Concentration MSSA” value in data set [6] was 16 µM. Also, the Lys20 in the data set with red blood cell (RBC) was determined as 8 µM.
`CCCCCCCCCCC[P+](CC[P+](CCCCCCCCCCC)(c1ccccc1)c1ccccc1)(CC[P+](CCCCCCCCCCC)(c1ccccc1)c1ccccc1)CC[P+](CCCCCCCCCCC)(c1ccccc1)c1ccccc1` [4P-11,11,11,11, ((undecylphosphoniotriyl)tris(ethane-2,1-diyl))tris(diphenyl(undecyl)phosphonium)]: in data set [1], the “Minimum Inhibitory Concentration E. faecalis” value was 125 µM. Also, the “Minimum Inhibitory Concentration HA-MRSA” value in data set [2] amounted to 125 µM. In addition, the “Minimum Inhibitory Concentration CA-MRSA” value in data set [3] was found to be 32 µM. Besides, the “Minimum Inhibitory Concentration E. coli” value in data set [4] stood at 125 µM. In addition, the “Minimum Inhibitory Concentration Pa” value in data set [5] is more than 250 µM. The “Minimum Inhibitory Concentration MSSA” value in data set [6] was determined as 16 µM. The same compound yielded a Lys20 in the data set with red blood cell (RBC) of 4 µM.
On to `CCCCCCCCCCCC[P+](CC[P+](CCCCCCCCCCCC)(c1ccccc1)c1ccccc1)(CC[P+](CCCCCCCCCCCC)(c1ccccc1)c1ccccc1)CC[P+](CCCCCCCCCCCC)(c1ccccc1)c1ccccc1` [4P-12,12,12,12, ((dodecylphosphoniotriyl)tris(ethane-2,1-diyl))tris(dodecyldiphenylphosphonium)], for which the “Minimum Inhibitory Concentration E. faecalis” value in data set [1] was 250 µM. Also, the “Minimum Inhibitory Concentration HA-MRSA” value in data set [2] worked out at 63 µM. Also, the “Minimum Inhibitory Concentration CA-MRSA” value in data set [3] amounted to 16 µM. The “Minimum Inhibitory Concentration E. coli” value in data set [4] was 250 µM. Moreover, in data set [5], the “Minimum Inhibitory Concentration Pa” value was more than 250 µM. The “Minimum Inhibitory Concentration MSSA” value in data set [6] was 16 µM. For the same compound, the Lys20 in the data set with red blood cell (RBC) came to 4 µM.
In the data set with red blood cell (RBC), `CCCCCCCCCCCCCCCC[n+]1ccccc1` [CPC, cetylpyridinium chloride, reference compound] returned a Lys20 of 4 µM.
For the compound `CCCCCCCC[P+](CC[P+](CCCCCCCC)(c1ccccc1)c1ccccc1)(CC[P+](CCCCCCCC)(c1ccccc1)c1ccccc1)c1ccccc1` [P2P2P-8,8,8, ((octyl(phenyl)phosphoniodiyl)bis(ethane-2,1-diyl))bis(octyldiphenylphosphonium)], the “Minimum Inhibitory Concentration E. faecalis” value in data set [1] was found to be 250 µM. The “Minimum Inhibitory Concentration HA-MRSA” value in data set [2] turned out to be 2 µM. Further, in data set [3], the “Minimum Inhibitory Concentration CA-MRSA” value is 1 µM. Further, in data set [4], the “Minimum Inhibitory Concentration E. coli” value is 250 µM. The “Minimum Inhibitory Concentration Pa” value in data set [5] is more than 250 µM. Also, in data set [6], the “Minimum Inhibitory Concentration MSSA” value was found to be 2 µM. The compound also came in with a Lys20 in the data set with red blood cell (RBC) of 16 µM.
Consider `CCCCCCCCCC[P+](CC[P+](CCCCCCCCCC)(c1ccccc1)c1ccccc1)(CC[P+](CCCCCCCCCC)(c1ccccc1)c1ccccc1)c1ccccc1` [P2P2P-10,10,10, ((decyl(phenyl)phosphoniodiyl)bis(ethane-2,1-diyl))bis(decyldiphenylphosphonium)], for which the “Minimum Inhibitory Concentration E. faecalis” value in data set [1] amounted to 250 µM. In data set [2], the “Minimum Inhibitory Concentration HA-MRSA” value was 8 µM. Also, the “Minimum Inhibitory Concentration CA-MRSA” value in data set [3] turned out to be 2 µM. Further, the “Minimum Inhibitory Concentration E. coli” value in data set [4] was 32 µM. In data set [5], the “Minimum Inhibitory Concentration Pa” value was more than 250 µM. The “Minimum Inhibitory Concentration MSSA” value in data set [6] is 2 µM. Also, the Lys20 with red blood cell (RBC) is 2 µM.
As to `CCCCCCCCCCC[P+](CC[P+](CCCCCCCCCCC)(c1ccccc1)c1ccccc1)(CC[P+](CCCCCCCCCCC)(c1ccccc1)c1ccccc1)c1ccccc1` [P2P2P-11,11,11, ((phenyl(undecyl)phosphoniodiyl)bis(ethane-2,1-diyl))bis(diphenyl(undecyl)phosphonium)], the “Minimum Inhibitory Concentration E. faecalis” value in data set [1] amounted to 63 µM. For the same compound, the “Minimum Inhibitory Concentration HA-MRSA” value in data set [2] was 4 µM. The “Minimum Inhibitory Concentration CA-MRSA” value in data set [3] was 4 µM. Further, the “Minimum Inhibitory Concentration E. coli” value in data set [4] amounted to 63 µM. Besides, the “Minimum Inhibitory Concentration Pa” value in data set [5] is more than 250 µM. In addition, the “Minimum Inhibitory Concentration MSSA” value in data set [6] was found to be 2 µM. In the data set on red blood cell (RBC), this compound showed a Lys20 of 1 µM.
Turning to `CCCCCCCCCCCC[P+](CC[P+](CCCCCCCCCCCC)(c1ccccc1)c1ccccc1)(CC[P+](CCCCCCCCCCCC)(c1ccccc1)c1ccccc1)c1ccccc1` [P2P2P-12,12,12, ((dodecyl(phenyl)phosphoniodiyl)bis(ethane-2,1-diyl))bis(dodecyldiphenylphosphonium)], the “Minimum Inhibitory Concentration E. faecalis” value in data set [1] came out at 125 µM. For the same compound, the “Minimum Inhibitory Concentration HA-MRSA” value in data set [2] was 8 µM. Besides, the “Minimum Inhibitory Concentration CA-MRSA” value in data set [3] was found to be 4 µM. Further, the “Minimum Inhibitory Concentration E. coli” value in data set [4] worked out at 125 µM. Moreover, in data set [5], the “Minimum Inhibitory Concentration Pa” value is more than 250 µM. For the same compound, the “Minimum Inhibitory Concentration MSSA” value in data set [6] was 2 µM. For the same compound, in the data set with red blood cell (RBC), the Lys20 turned out to be 1 µM.
With `CCCCCCCCCCCCC[P+](CC[P+](CCCCCCCCCCCCC)(c1ccccc1)c1ccccc1)(CC[P+](CCCCCCCCCCCCC)(c1ccccc1)c1ccccc1)c1ccccc1` [P2P2P-13,13,13, ((phenyl(tridecyl)phosphoniodiyl)bis(ethane-2,1-diyl))bis(diphenyl(tridecyl)phosphonium)], the “Minimum Inhibitory Concentration E. faecalis” value in data set [1] is 125 µM. In data set [2], the “Minimum Inhibitory Concentration HA-MRSA” value is 16 µM. For the same compound, the “Minimum Inhibitory Concentration CA-MRSA” value in data set [3] turned out to be 4 µM. The “Minimum Inhibitory Concentration E. coli” value in data set [4] amounted to 125 µM. For the same compound, the “Minimum Inhibitory Concentration Pa” value in data set [5] was more than 250 µM. In addition, in data set [6], the “Minimum Inhibitory Concentration MSSA” value is 2 µM. In the data set with red blood cell (RBC), this compound registered a Lys20 of 2 µM.
Take `CCCCCCCC[P+](c1ccccc1)(c1ccccc1)c1ccccc1` [TPP-8, octyltriphenylphosphonium]: the “Minimum Inhibitory Concentration E. faecalis” value in data set [1] is more than 250 µM. Besides, the “Minimum Inhibitory Concentration HA-MRSA” value in data set [2] was 125 µM. For the same compound, the “Minimum Inhibitory Concentration CA-MRSA” value in data set [3] was 4 µM. Also, the “Minimum Inhibitory Concentration E. coli” value in data set [4] was more than 250 µM. Moreover, the “Minimum Inhibitory Concentration Pa” value in data set [5] was more than 250 µM. Besides, the “Minimum Inhibitory Concentration MSSA” value in data set [6] was determined as 4 µM. This compound had a Lys20 in the data set on red blood cell (RBC) of 63 µM.
Turning to `CCCCCCCCCC[P+](c1ccccc1)(c1ccccc1)c1ccccc1` [TPP-10, decyltriphenylphosphonium], the “Minimum Inhibitory Concentration E. faecalis” value in data set [1] was 250 µM. Also, the “Minimum Inhibitory Concentration HA-MRSA” value in data set [2] was determined as 8 µM. Further, the “Minimum Inhibitory Concentration CA-MRSA” value in data set [3] is 2 µM. Moreover, in data set [4], the “Minimum Inhibitory Concentration E. coli” value was found to be 250 µM. In addition, in data set [5], the “Minimum Inhibitory Concentration Pa” value was found to be 250 µM. Further, the “Minimum Inhibitory Concentration MSSA” value in data set [6] was determined as 1 µM. In addition, in the data set on red blood cell (RBC), the Lys20 is 16 µM.
Turning to `CCCCCCCCCCC[P+](c1ccccc1)(c1ccccc1)c1ccccc1` [TPP-11, triphenyl(undecyl)phosphonium], the “Minimum Inhibitory Concentration E. faecalis” value in data set [1] was determined as 125 µM. Besides, the “Minimum Inhibitory Concentration HA-MRSA” value in data set [2] turned out to be 4 µM. Besides, the “Minimum Inhibitory Concentration CA-MRSA” value in data set [3] worked out at 1 µM. Further, the “Minimum Inhibitory Concentration E. coli” value in data set [4] turned out to be 125 µM. Besides, in data set [5], the “Minimum Inhibitory Concentration Pa” value is 250 µM. Further, the “Minimum Inhibitory Concentration MSSA” value in data set [6] was 1 µM. Moreover, in the data set on red blood cell (RBC), the Lys20 is 16 µM.
In the case of `CCCCCCCCCCCC[P+](c1ccccc1)(c1ccccc1)c1ccccc1` [TPP-12, dodecyltriphenylphosphonium], in data set [1], the “Minimum Inhibitory Concentration E. faecalis” value stood at 63 µM. Besides, the “Minimum Inhibitory Concentration HA-MRSA” value in data set [2] is 2 µM. Besides, the “Minimum Inhibitory Concentration CA-MRSA” value in data set [3] was 1 µM. Moreover, the “Minimum Inhibitory Concentration E. coli” value in data set [4] was 250 µM. The “Minimum Inhibitory Concentration Pa” value in data set [5] came out at 63 µM. For the same compound, in data set [6], the “Minimum Inhibitory Concentration MSSA” value was 0.5 µM. The Lys20 with red blood cell (RBC) amounted to 8 µM.
`CCCCCCCCCCCCC[P+](c1ccccc1)(c1ccccc1)c1ccccc1` [TPP-13, triphenyl(tridecyl)phosphonium]: the “Minimum Inhibitory Concentration E. faecalis” value in data set [1] stood at 16 µM. Moreover, in data set [2], the “Minimum Inhibitory Concentration HA-MRSA” value came out at 2 µM. Moreover, the “Minimum Inhibitory Concentration CA-MRSA” value in data set [3] amounted to 1 µM. Besides, in data set [4], the “Minimum Inhibitory Concentration E. coli” value stood at 4 µM and the “fold increase in activity compared to its 12-carbon analog” value is approximately 63 fold. Moreover, the “Minimum Inhibitory Concentration Pa” value in data set [5] was 32 µM. Moreover, the “Minimum Inhibitory Concentration MSSA” value in data set [6] came to 1 µM. In the data set with red blood cell (RBC), this compound gave a Lys20 of 4 µM.
On to `CCCCCCCCCCCCCC[P+](c1ccccc1)(c1ccccc1)c1ccccc1` [TPP-14, triphenyl(tetradecyl)phosphonium], for which the “Minimum Inhibitory Concentration E. faecalis” value in data set [1] stood at 8 µM. The “Minimum Inhibitory Concentration HA-MRSA” value in data set [2] came to 2 µM. The “Minimum Inhibitory Concentration CA-MRSA” value in data set [3] stood at 2 µM. Further, the “Minimum Inhibitory Concentration E. coli” value in data set [4] stood at 16 µM. Further, the “Minimum Inhibitory Concentration Pa” value in data set [5] is 16 µM. In data set [6], the “Minimum Inhibitory Concentration MSSA” value worked out at 2 µM. Besides, the Lys20 with red blood cell (RBC) was determined as 4 µM.
For `CCCCCCCCCCCCCCCC[P+](c1ccccc1)(c1ccccc1)c1ccccc1` [TPP-16, hexadecyltriphenylphosphonium], in data set [1], the “Minimum Inhibitory Concentration E. faecalis” value worked out at 4 µM; the “fold increase in activity compared to BAC and CPC” value was approximately 63 fold. The “Minimum Inhibitory Concentration HA-MRSA” value in data set [2] amounted to 4 µM. For the same compound, the “Minimum Inhibitory Concentration CA-MRSA” value in data set [3] worked out at 2 µM. Also, the “Minimum Inhibitory Concentration E. coli” value in data set [4] was 16 µM. Moreover, in data set [5], the “Minimum Inhibitory Concentration Pa” value stood at 16 µM; the “fold increase in activity compared to BAC and CPC” value is approximately 16 fold. Besides, the “Minimum Inhibitory Concentration MSSA” value in data set [6] came to 2 µM. Moreover, the Lys20 in the data set on red blood cell (RBC) is 4 µM.
